Test results from patent US9943519B2, “Pharmaceutical compounds” (F.HOFFMANN-LA ROCHE AG, priority 2006, dated 2018).

Assays:
Type in all cases: biochemical
Details in all cases: ratio of IC50 values, SPA, purified human PI3K isoforms
[1] = target: human PI3K isoform beta (p110 beta) (Homo sapiens, UniProt P42338); assay: p110 isoform selectivity scintillation proximity assay (beta)
Method: (§1) Binding of compounds of the invention from above Tables 1a and 1b to purified preparations of p110 isoforms alpha, beta, delta, and gamma was measured by a Scintillation Proximity Assay (SPA) to determine binding activity (IC50 μMol) and selectivity of binding of beta, delta, and gamma isoforms relative to alpha (Example 8). These values are expressed in Table 2.
(§2) The ability of representative compounds from Tables 1a and 1b to inhibit the lipid kinase activity of purified preparations of human PI3K isoforms alpha, beta, delta, and gamma was determined by a radiometric scintillation proximity assay (SPA, GE Healthcare, Amersham Biosciences). Concentration dependent inhibition at 50% (IC50 μMol) was determined for all four isoforms […] and fold potency over beta, delta, and gamma relative to alpha was calculated for a selection of compounds in Table 2. Each compound has a p110 alpha IC50<1 μMol.

[2] = target: human PI3K isoform delta (p110 delta) (Homo sapiens, UniProt O00329); assay: p110 isoform selectivity scintillation proximity assay (delta)
Method: as §1, §2

[3] = target: human PI3K isoform gamma (p110 gamma) (Homo sapiens, UniProt P48736); assay: p110 isoform selectivity scintillation proximity assay (gamma)
Method: as §1, §2

Sequence of human PI3K isoform beta (p110 beta) (P42338 whole entry, canonical isoform): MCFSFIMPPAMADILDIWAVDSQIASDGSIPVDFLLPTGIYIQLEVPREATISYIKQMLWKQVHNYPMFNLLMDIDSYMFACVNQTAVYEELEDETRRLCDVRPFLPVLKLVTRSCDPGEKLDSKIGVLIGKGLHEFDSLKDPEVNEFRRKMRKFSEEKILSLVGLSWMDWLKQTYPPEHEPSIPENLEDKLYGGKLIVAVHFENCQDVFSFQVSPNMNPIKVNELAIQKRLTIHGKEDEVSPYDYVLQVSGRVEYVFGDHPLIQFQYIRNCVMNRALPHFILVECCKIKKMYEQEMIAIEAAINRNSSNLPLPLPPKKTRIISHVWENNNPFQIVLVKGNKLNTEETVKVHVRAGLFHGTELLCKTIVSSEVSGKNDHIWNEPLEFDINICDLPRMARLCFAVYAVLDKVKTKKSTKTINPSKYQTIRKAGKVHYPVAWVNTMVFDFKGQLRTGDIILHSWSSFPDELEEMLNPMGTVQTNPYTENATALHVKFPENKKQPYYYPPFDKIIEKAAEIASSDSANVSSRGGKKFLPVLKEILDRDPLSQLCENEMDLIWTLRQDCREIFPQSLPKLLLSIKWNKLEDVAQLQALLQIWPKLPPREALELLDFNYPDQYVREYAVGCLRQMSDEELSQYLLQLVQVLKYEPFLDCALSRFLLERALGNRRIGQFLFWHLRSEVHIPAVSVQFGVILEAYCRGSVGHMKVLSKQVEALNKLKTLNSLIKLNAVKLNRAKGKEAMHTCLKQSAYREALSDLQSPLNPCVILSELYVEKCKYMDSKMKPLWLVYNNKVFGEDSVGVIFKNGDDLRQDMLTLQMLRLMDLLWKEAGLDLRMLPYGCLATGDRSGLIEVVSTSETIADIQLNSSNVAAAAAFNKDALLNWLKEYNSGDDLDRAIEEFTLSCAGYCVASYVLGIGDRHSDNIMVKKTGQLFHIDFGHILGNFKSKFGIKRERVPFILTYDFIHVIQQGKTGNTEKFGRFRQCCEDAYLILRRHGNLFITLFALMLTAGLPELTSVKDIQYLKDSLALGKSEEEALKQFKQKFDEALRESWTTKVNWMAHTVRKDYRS
Sequence of human PI3K isoform beta (p110 beta) (P27986 whole entry partner, canonical isoform): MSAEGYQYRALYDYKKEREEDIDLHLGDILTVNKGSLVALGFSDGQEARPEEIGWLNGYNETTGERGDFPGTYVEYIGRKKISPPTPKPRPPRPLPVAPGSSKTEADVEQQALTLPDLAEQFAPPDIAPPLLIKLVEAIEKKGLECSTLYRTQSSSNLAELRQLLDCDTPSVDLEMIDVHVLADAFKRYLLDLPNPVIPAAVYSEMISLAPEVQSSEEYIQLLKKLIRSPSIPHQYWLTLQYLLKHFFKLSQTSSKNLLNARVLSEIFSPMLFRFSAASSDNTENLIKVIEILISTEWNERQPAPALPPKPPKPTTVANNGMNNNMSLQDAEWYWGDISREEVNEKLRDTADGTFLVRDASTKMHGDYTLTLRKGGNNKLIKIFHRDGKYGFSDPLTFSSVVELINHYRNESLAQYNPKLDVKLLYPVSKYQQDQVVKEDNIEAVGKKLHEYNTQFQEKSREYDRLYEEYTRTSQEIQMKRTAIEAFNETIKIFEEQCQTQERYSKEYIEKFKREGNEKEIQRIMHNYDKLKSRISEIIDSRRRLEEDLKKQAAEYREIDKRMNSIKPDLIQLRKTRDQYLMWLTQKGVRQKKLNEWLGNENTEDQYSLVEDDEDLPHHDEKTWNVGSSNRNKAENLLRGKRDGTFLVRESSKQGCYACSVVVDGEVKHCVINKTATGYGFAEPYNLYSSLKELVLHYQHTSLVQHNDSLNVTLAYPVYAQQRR
Sequence of human PI3K isoform gamma (p110 gamma) (P48736 whole entry, canonical isoform): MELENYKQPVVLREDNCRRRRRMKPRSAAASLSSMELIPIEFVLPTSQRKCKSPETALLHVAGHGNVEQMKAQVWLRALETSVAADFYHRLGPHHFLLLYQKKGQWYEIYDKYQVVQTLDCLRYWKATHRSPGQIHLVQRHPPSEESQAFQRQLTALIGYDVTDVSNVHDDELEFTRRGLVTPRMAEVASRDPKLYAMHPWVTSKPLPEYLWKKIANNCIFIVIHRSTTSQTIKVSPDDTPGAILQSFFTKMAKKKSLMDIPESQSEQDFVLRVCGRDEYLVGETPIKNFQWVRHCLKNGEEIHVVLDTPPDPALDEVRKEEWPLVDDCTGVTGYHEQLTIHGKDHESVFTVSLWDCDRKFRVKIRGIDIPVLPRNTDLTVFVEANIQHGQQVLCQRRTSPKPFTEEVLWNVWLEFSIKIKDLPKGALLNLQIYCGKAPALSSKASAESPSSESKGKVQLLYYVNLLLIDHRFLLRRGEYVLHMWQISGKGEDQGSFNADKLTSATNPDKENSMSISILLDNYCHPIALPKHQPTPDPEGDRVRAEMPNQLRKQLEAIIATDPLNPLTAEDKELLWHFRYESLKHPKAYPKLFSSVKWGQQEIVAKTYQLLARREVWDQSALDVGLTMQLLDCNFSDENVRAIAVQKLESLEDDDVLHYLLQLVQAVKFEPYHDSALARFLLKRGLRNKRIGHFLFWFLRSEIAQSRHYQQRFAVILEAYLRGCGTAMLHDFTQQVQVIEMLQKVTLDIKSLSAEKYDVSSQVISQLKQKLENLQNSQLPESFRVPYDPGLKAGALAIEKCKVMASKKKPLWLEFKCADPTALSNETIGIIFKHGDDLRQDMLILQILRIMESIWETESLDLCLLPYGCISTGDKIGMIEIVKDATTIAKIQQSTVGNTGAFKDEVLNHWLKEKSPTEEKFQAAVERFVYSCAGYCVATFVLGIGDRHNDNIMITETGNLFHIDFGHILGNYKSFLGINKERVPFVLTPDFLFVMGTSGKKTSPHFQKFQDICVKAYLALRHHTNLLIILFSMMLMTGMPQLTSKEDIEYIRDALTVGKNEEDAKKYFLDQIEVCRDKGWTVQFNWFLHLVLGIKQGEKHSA
Sequence of human PI3K isoform delta (p110 delta) (O00329 whole entry, canonical isoform): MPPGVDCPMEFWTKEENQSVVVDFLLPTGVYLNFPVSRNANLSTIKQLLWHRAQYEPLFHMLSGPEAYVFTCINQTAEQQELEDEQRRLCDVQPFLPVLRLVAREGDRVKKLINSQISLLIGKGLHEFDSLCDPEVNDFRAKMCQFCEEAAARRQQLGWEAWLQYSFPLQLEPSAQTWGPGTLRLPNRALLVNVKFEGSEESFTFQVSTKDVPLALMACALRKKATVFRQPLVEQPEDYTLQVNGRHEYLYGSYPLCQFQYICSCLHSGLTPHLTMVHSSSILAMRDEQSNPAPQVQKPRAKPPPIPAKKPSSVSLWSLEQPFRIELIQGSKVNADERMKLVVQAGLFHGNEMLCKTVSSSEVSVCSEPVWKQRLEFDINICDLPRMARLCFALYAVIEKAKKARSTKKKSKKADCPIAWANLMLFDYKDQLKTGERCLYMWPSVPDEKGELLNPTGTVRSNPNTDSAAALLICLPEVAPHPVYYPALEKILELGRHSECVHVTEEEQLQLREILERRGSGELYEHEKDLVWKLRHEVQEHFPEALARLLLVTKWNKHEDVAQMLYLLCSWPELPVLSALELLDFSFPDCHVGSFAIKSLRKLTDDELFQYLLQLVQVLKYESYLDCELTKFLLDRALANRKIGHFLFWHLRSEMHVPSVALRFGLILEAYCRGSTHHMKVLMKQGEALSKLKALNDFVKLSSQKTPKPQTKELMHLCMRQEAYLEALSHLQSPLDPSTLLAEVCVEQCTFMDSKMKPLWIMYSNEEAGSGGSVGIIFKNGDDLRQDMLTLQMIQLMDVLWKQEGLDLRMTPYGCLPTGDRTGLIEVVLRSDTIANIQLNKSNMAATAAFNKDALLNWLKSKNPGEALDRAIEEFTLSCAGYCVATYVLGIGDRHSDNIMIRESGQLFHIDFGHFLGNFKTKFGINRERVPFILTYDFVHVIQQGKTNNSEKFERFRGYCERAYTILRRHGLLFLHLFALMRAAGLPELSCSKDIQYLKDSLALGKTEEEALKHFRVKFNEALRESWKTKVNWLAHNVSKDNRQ
Sequence of human PI3K isoform delta (p110 delta) (P27986 whole entry partner, canonical isoform): as the sequence (P27986 whole entry partner, canonical isoform) above

Question: How did the “alpha/beta (fold potency over beta relative to alpha)” value [1] turn out when C[C@H](O)C(=O)N1CCN(Cc2cc3nc(-c4cccc5[nH]ncc45)nc(N4CCOCC4)c3s2)CC1 [Compound 66, (S)-1-(4-((2-(1H-indazol-4-yl)-4-morpholinothieno[3,2-d]pyrimidin-6-yl)methyl)piperazin-1-yl)-2-hydroxypropan-1-one] was run?
Answer: <10 fold

Question: What about the “alpha/delta (fold potency over delta relative to alpha)” value [2] of the same compound?
Answer: <10 fold

Question: And the “alpha/gamma (fold potency over gamma relative to alpha)” value [3]?
Answer: >10 fold

Question: CS(=O)(=O)N1CCN(Cc2cc3nc(-c4cccc5[nH]cnc45)nc(N4CCOCC4)c3s2)CC1 [Compound 139] was tested. Which “alpha/beta (fold potency over beta relative to alpha)” value [1] did it give?
Answer: <10 fold

Question: And the “alpha/delta (fold potency over delta relative to alpha)” value [2]?
Answer: <10 fold

Question: And the “alpha/gamma (fold potency over gamma relative to alpha)” value [3]?
Answer: <10 fold

Question: With CN(C)S(=O)(=O)C1CCN(Cc2cc3nc(-c4cccc5[nH]ncc45)nc(N4CCOCC4)c3s2)CC1 [Compound 27, 2-(1H-indazol-4-yl)-6-((4-N,N-dimethylaminosulfonylpiperidin-1-yl)methyl)-4-morpholinothieno[3,2-d]pyrimidine] as the compound, how does the “alpha/beta (fold potency over beta relative to alpha)” value [1] read?
Answer: >10 fold

Question: What about the “alpha/delta (fold potency over delta relative to alpha)” value [2] of the same compound?
Answer: <10 fold

Question: What about the “alpha/gamma (fold potency over gamma relative to alpha)” value [3] of the same compound?
Answer: >10 fold

Question: What does the source list for CS(=O)(=O)N1CCN(Cc2cc3c(N4CCOCC4)nc(-c4cncc5ccccc45)nc3s2)CC1 [Compound 94, 4-[6-(4-Methanesulfonyl-piperazin-1-ylmethyl)-4-morpholin-4-yl-thieno[2,3-d]pyrimidin-2-yl]-isoquinoline]?
Answer: alpha/beta (fold potency over beta relative to alpha) [1]: >10 fold; alpha/delta (fold potency over delta relative to alpha) [2]: <10 fold; alpha/gamma (fold potency over gamma relative to alpha) [3]: >10 fold

Question: CC(=O)N1CCN(Cc2cc3nc(-c4cccc5[nH]ncc45)nc(N4CCOCC4)c3s2)CC1 [Compound 54, 1-(4-((2-(1H-indazol-4-yl)-4-morpholinothieno[3,2-d]pyrimidin-6-yl)methyl)piperazin-1-yl)ethanone] was tested. Which “alpha/beta (fold potency over beta relative to alpha)” value [1] did it give?
Answer: <10 fold

Question: What about the “alpha/delta (fold potency over delta relative to alpha)” value [2] of the same compound?
Answer: <10 fold

Question: And the “alpha/gamma (fold potency over gamma relative to alpha)” value [3]?
Answer: >10 fold

Question: Which “alpha/beta (fold potency over beta relative to alpha)” value [1] does the source give for Cc1nc2ccccc2n1-c1nc(N2CCOCC2)c2cc(CN3CCN(S(C)(=O)=O)CC3)sc2n1 [Compound 16, 2-(2-methyl-1H-benzo[d]imidazol-1-yl)-6-((4-methylsulfonylpiperazin-1-yl)methyl)-4-morpholinothieno[2,3-d]pyrimidine] here?
Answer: >10 fold

Question: What about the “alpha/delta (fold potency over delta relative to alpha)” value [2] of the same compound?
Answer: <10 fold

Question: And the “alpha/gamma (fold potency over gamma relative to alpha)” value [3]?
Answer: >10 fold

Question: CS(=O)(=O)N1CCN(Cc2cc3nc(-c4cnc5ccccc5c4)nc(N4CCOCC4)c3s2)CC1 [Compound 89, 3-[6-(4-Methanesulfonyl-piperazin-1-ylmethyl)-4-morpholin-yl-thieno[3,2-d]pyrimidin-2-yl]-quinoline] was tested. Which “alpha/beta (fold potency over beta relative to alpha)” value [1] did it give?
Answer: >10 fold

Question: And the “alpha/delta (fold potency over delta relative to alpha)” value [2]?
Answer: >10 fold

Question: What about the “alpha/gamma (fold potency over gamma relative to alpha)” value [3] of the same compound?
Answer: >10 fold

Question: How did the “alpha/beta (fold potency over beta relative to alpha)” value [1] turn out when CS(=O)(=O)N1CCN(Cc2cc3nc(-c4cncc5ccccc45)nc(N4CCOCC4)c3s2)CC1 [Compound 90, 4-[6-(4-Methanesulfonyl-piperazin-1-ylmethyl)-4-morpholin-4-yl-thieno[3,2-d]pyrimidin-2-yl]-isoquinoline] was run?
Answer: >10 fold

Question: What about the “alpha/delta (fold potency over delta relative to alpha)” value [2] of the same compound?
Answer: <10 fold

Question: What about the “alpha/gamma (fold potency over gamma relative to alpha)” value [3] of the same compound?
Answer: >10 fold

Question: Which “alpha/beta (fold potency over beta relative to alpha)” value [1] does the source give for CS(=O)(=O)N1CCN(Cc2cc3nc(-c4cnc5[nH]ccc5c4)nc(N4CCOCC4)c3o2)CC1 [Compound 142] here?
Answer: >10 fold

Question: What about the “alpha/delta (fold potency over delta relative to alpha)” value [2] of the same compound?
Answer: <10 fold

Question: And the “alpha/gamma (fold potency over gamma relative to alpha)” value [3]?
Answer: >10 fold

Question: With C[C@@H]1CN(S(C)(=O)=O)C[C@H](C)N1Cc1cc2nc(-c3cccc4[nH]ncc34)nc(N3CCOCC3)c2s1 [Compound 7, 6-(((2R,6S)-4-methylsulfonyl-2,6-dimethylpiperazin-1-yl)methyl)-2-(1H-indazol-4-yl)-4-morpholinothieno[3,2-d]pyrimidine] as the compound, how does the “alpha/beta (fold potency over beta relative to alpha)” value [1] read?
Answer: >10 fold

Question: What about the “alpha/delta (fold potency over delta relative to alpha)” value [2] of the same compound?
Answer: <10 fold

Question: And the “alpha/gamma (fold potency over gamma relative to alpha)” value [3]?
Answer: >10 fold

Question: For CS(=O)(=O)N1CCN(Cc2cc3c(N4CCOCC4)nc(-c4cccc5[nH]ncc45)nc3s2)CC1 [Compound 57, 2-(1H-indazol-4-yl)-6-((4-methylsulfonylpiperazin-1-yl)methyl)-4-morpholinothieno[2,3-d]pyrimidine], which “alpha/beta (fold potency over beta relative to alpha)” value [1] is on record?
Answer: >10 fold

Question: What about the “alpha/delta (fold potency over delta relative to alpha)” value [2] of the same compound?
Answer: <10 fold

Question: What about the “alpha/gamma (fold potency over gamma relative to alpha)” value [3] of the same compound?
Answer: >10 fold

Question: For Cc1c(CN2CCC(S(C)(=O)=O)CC2)sc2c(N3CCOCC3)nc(-c3cccc4[nH]ncc34)nc12 [Compound 23, 2-(1H-indazol-4-yl)-7-methyl-6-((4-(methylsulfonyl)piperidin-1-yl)methyl)-4-morpholinothieno[3,2-d]pyrimidine], which “alpha/beta (fold potency over beta relative to alpha)” value [1] is on record?
Answer: >10 fold

Question: And the “alpha/delta (fold potency over delta relative to alpha)” value [2]?
Answer: <10 fold

Question: What about the “alpha/gamma (fold potency over gamma relative to alpha)” value [3] of the same compound?
Answer: >10 fold

Question: How did the “alpha/beta (fold potency over beta relative to alpha)” value [1] turn out when CS(=O)(=O)N1CCN(Cc2cc3c(N4CCOCC4)nc(-c4cnc5[nH]ccc5c4)nc3s2)CC1 [Compound 140] was run?
Answer: >10 fold

Question: And the “alpha/delta (fold potency over delta relative to alpha)” value [2]?
Answer: >10 fold

Question: What about the “alpha/gamma (fold potency over gamma relative to alpha)” value [3] of the same compound?
Answer: >10 fold

Question: Which results are given for CS(=O)(=O)N1CCN(Cc2cc3nc(-c4cnc5[nH]ccc5c4)nc(N4CCOCC4)c3s2)CC1 [Compound 133, 6-((4-methylsulfonylpiperazin-1-yl)methyl)-4-morpholino-2-(1H-pyrrolo[2,3-b]pyridin-5-yl)thieno[3,2-d]pyrimidine]?
Answer: alpha/beta (fold potency over beta relative to alpha) [1]: >10 fold; alpha/delta (fold potency over delta relative to alpha) [2]: <10 fold; alpha/gamma (fold potency over gamma relative to alpha) [3]: >10 fold

Question: Which “alpha/beta (fold potency over beta relative to alpha)” value [1] does the source give for CN(Cc1cc2nc(-c3cccc4[nH]ncc34)nc(N3CCOCC3)c2s1)C1CCN(S(C)(=O)=O)C1 (stereo not drawn) [Compound 60, N-((2-(1H-indazol-4-yl)-4-morpholinothieno[3,2-d]pyrimidin-6-yl)methyl)-N-methyl-(1-methylsulfonylpyrrolidin)-3-amine] here?
Answer: >10 fold

Question: And the “alpha/delta (fold potency over delta relative to alpha)” value [2]?
Answer: <10 fold

Question: What about the “alpha/gamma (fold potency over gamma relative to alpha)” value [3] of the same compound?
Answer: >10 fold

Question: Which “alpha/beta (fold potency over beta relative to alpha)” value [1] does the source give for CS(=O)(=O)N1CCN(Cc2cc3nc(-c4cnc5[nH]cnc5c4)nc(N4CCOCC4)c3s2)CC1 [Compound 144] here?
Answer: <10 fold

Question: And the “alpha/delta (fold potency over delta relative to alpha)” value [2]?
Answer: <10 fold

Question: And the “alpha/gamma (fold potency over gamma relative to alpha)” value [3]?
Answer: >10 fold

Question: O=S(=O)(N1CCOCC1)N1CCN(Cc2cc3nc(-c4cccc5[nH]ncc45)nc(N4CCOCC4)c3s2)CC1 [Compound 28, 2-(1H-indazol-4-yl)-6-((4-N-morpholinosulfonylpiperazin-1-yl)methyl)-4-morpholinothieno[3,2-d]pyrimidine] was tested. Which “alpha/beta (fold potency over beta relative to alpha)” value [1] did it give?
Answer: >10 fold

Question: And the “alpha/delta (fold potency over delta relative to alpha)” value [2]?
Answer: <10 fold

Question: And the “alpha/gamma (fold potency over gamma relative to alpha)” value [3]?
Answer: >10 fold

Question: With CN(C1CCN(Cc2cc3nc(-c4cccc5[nH]ncc45)nc(N4CCOCC4)c3s2)C1)S(C)(=O)=O (stereo not drawn) [Compound 58, 1-((2-(1H-indazol-4-yl)-4-morpholinothieno[3,2-d]pyrimidin-6-yl)methyl)-N-methyl-N-methylsulfonylpyrrolidin-3-amine] as the compound, how does the “alpha/beta (fold potency over beta relative to alpha)” value [1] read?
Answer: >10 fold

Question: What about the “alpha/delta (fold potency over delta relative to alpha)” value [2] of the same compound?
Answer: <10 fold

Question: And the “alpha/gamma (fold potency over gamma relative to alpha)” value [3]?
Answer: >10 fold

Question: For C[C@H]1CN(Cc2cc3nc(-c4cccc5[nH]ncc45)nc(N4CCOCC4)c3s2)CCN1S(C)(=O)=O [Compound 4, 2-(1H-indazol-4-yl)-6-(((3S,5R)-3-methyl-4-methylsulfonylpiperazin-1-yl)methyl)-4-morpholinothieno[3,2-d]pyrimidine], which “alpha/beta (fold potency over beta relative to alpha)” value [1] is on record?
Answer: >10 fold

Question: What about the “alpha/delta (fold potency over delta relative to alpha)” value [2] of the same compound?
Answer: <10 fold

Question: What about the “alpha/gamma (fold potency over gamma relative to alpha)” value [3] of the same compound?
Answer: >10 fold

Question: For Cc1c(CN2CCN(S(C)(=O)=O)CC2)sc2c(N3CCOCC3)nc(-c3cccc4[nH]ncc34)nc12 [Compound 29, 2-(1H-indazol-4-yl)-7-methyl-6-((4-(methylsulfonyl)piperazin-1-yl)methyl)-4-morpholinothieno[3,2-d]pyrimidine], which “alpha/beta (fold potency over beta relative to alpha)” value [1] is on record?
Answer: >10 fold

Question: And the “alpha/delta (fold potency over delta relative to alpha)” value [2]?
Answer: <10 fold

Question: What about the “alpha/gamma (fold potency over gamma relative to alpha)” value [3] of the same compound?
Answer: >10 fold

Question: With CS(=O)(=O)N1CCN(Cc2cc3nc(-c4cccc5[nH]ncc45)nc(N4CCOCC4)c3o2)CC1 [Compound 2, 2-(1H-indazol-4-yl)-6-((4-methylsulfonylpiperazin-1-yl)methyl)-4-morpholinofuro[3,2-d]pyrimidine] as the compound, how does the “alpha/beta (fold potency over beta relative to alpha)” value [1] read?
Answer: >10 fold

Question: And the “alpha/delta (fold potency over delta relative to alpha)” value [2]?
Answer: <10 fold

Question: And the “alpha/gamma (fold potency over gamma relative to alpha)” value [3]?
Answer: >10 fold

Question: With CS(=O)(=O)N1CCN(Cc2cc3c(N4CCOCC4)nc(-c4cccc5[nH]ncc45)nc3o2)CC1 [Compound 141, 2-(1H-indazol-4-yl)-6-((4-methylsulfonylpiperazin-1-yl)methyl)-4-morpholinofuro[2,3-d]pyrimidine] as the compound, how does the “alpha/beta (fold potency over beta relative to alpha)” value [1] read?
Answer: <10 fold

Question: What about the “alpha/delta (fold potency over delta relative to alpha)” value [2] of the same compound?
Answer: <10 fold

Question: What about the “alpha/gamma (fold potency over gamma relative to alpha)” value [3] of the same compound?
Answer: >10 fold

Question: Which results are given for CS(=O)(=O)N1CCN(Cc2cc3c(N4CCOCC4)nc(-c4cnc5[nH]cnc5c4)nc3s2)CC1 [Compound 147]?
Answer: alpha/beta (fold potency over beta relative to alpha) [1]: >10 fold; alpha/delta (fold potency over delta relative to alpha) [2]: >10 fold; alpha/gamma (fold potency over gamma relative to alpha) [3]: >10 fold
